32 compounds from patent US8614327B2 (Vertex Pharmaceuticals Incorporated, priority 2004, dated 2013) can be followed below.

The target of the test is T1, ΔF508-CFTR (Homo sapiens, UniProt P13569, DEL508-508).
T1 construct: expressed in transfected cells
Put plainly: Membrane potential optical (FRET/VIPR) assay, identification of potentiator compounds. The conditions noted are these: Table 3, assay not given; for % Activity: relative efficacy. In kind it is cell-based. In a few lines: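 Double-addition potentiator screen: compound delivered in gluconate-substituted Cl^--free medium, membrane potential followed via CC2-DMPE/DiSBAC2(3) FRET on VIPR. Cells were ΔF508-CFTR-expressing NIH3T3 mouse fibroblasts, held 2 h at 37° C. then 24 h at 27° C. before assay.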

T1 sequence (P13569 with tags, fused parts or gaps DEL508-508): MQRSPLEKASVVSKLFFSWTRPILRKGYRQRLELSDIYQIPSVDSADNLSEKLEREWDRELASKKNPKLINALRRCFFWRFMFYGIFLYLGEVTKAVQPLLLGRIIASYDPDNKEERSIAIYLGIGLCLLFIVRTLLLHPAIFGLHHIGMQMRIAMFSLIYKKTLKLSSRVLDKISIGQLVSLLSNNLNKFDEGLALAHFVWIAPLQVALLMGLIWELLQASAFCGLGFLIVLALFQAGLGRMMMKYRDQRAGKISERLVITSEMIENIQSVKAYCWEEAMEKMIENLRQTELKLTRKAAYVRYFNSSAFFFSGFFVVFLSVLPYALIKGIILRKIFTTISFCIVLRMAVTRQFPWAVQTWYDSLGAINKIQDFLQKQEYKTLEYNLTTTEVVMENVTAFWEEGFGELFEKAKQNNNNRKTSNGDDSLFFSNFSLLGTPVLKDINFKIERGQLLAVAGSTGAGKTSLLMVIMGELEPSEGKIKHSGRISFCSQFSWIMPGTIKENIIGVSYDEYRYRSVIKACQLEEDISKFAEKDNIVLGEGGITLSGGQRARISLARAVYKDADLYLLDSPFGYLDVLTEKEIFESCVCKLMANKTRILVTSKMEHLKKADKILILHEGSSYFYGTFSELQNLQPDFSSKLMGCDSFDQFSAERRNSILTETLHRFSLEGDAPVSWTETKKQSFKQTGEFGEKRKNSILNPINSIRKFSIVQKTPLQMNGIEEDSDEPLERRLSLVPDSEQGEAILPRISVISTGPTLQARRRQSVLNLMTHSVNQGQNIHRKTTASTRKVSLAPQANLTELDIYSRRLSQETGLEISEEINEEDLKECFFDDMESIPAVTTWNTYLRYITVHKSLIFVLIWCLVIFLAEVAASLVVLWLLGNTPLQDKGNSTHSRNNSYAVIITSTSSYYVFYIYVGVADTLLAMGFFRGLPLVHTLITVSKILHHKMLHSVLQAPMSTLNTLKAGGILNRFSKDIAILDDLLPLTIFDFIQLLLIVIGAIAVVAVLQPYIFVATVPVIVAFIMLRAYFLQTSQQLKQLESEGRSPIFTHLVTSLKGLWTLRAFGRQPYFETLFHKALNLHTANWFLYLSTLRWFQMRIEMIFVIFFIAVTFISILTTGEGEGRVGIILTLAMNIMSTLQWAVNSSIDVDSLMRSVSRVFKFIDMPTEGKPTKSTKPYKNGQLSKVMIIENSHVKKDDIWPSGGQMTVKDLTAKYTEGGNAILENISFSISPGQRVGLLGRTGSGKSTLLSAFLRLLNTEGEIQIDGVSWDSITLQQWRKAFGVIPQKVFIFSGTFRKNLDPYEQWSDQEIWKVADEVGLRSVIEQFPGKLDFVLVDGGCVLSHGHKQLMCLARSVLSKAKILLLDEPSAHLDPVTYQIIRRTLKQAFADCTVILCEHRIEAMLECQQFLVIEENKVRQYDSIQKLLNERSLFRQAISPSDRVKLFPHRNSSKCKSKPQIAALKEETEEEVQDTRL

For the compound `Cc1ccc2[nH]cc(C(=O)Nc3ccc(N4[C@H](C)CC[C@H]4C)cc3C(F)(F)F)c(=O)c2c1` [Compound 569, N-(4-((2R,5R)-2,5-dimethylpyrrolidin-1-yl)-2-(trifluoromethyl)phenyl)-6-methyl-4-oxo-1,4-dihydroquinoline-3-carboxamide], the EC50 is below 10 µM and the “% Activity” value is “++ (between 25% to 100%)”.

For `O=C(Nc1ccc(N2CCOCC2)nc1)c1c[nH]c2ccccc2c1=O` [Compound 400, N-(6-morpholino-3-pyridyl)-4-oxo-1H-quinoline-3-carboxamide], the EC50 was 25 to 60 µM and the “% Activity” value was “+ (<25%)”.

Consider `CC(C)(C)c1cc(C(C)(C)C)c(C(F)F)cc1NC(=O)c1c[nH]c2ccccc2c1=O` [Compound 438, N-[5-(difluoromethyl)-2,4-ditert-butyl-phenyl]-4-oxo-1H-quinoline-3-carboxamide], for which the EC50 was below 10 µM and the “% Activity” value was “++ (between 25% to 100%)”.

Turning to `O=C(Nc1ccc2c(C(F)(F)F)c[nH]c2c1)c1c[nH]c2ccccc2c1=O` [Compound 545, 4-oxo-N-[3-(trifluoromethyl)-1H-indol-6-yl]-1H-quinoline-3-carboxamide], the EC50 is below 10 µM and the “% Activity” value is “+++ (>100%)”.

`CC(C)(C)c1cc(C(C)(C)C)c(NC(=O)c2c[nH]c3ccccc3c2=O)c(O)c1O` [Compound 220, N-(2,3-dihydroxy-4,6-ditert-butyl-phenyl)-4-oxo-1H-quinoline-3-carboxamide]: the EC50 is below 10 µM and the “% Activity” value is “++ (between 25% to 100%)”.

With `CN(Cc1ccccc1NC(=O)c1c[nH]c2ccccc2c1=O)C1CCCCC1` [Compound 354, N-[2-[(cyclohexyl-methyl-amino)methyl]phenyl]-4-oxo-1H-quinoline-3-carboxamide], the EC50 was below 10 µM and the “% Activity” value is on record as “++ (between 25% to 100%)”.

Take `CCCc1ccc(NC(=O)c2c[nH]c3ccccc3c2=O)cc1NC(=O)OCC` [Compound 382, [5-[(4-oxo-1H-quinolin-3-yl)carbonylamino]-2-propyl-phenyl]aminoformic acid ethyl ester]: the EC50 is below 10 µM and the “% Activity” value is given as “++ (between 25% to 100%)”.

For `CN(C)c1cccc(NC(=O)c2c[nH]c3ccccc3c2=O)c1` [Compound 418, N-(3-dimethylaminophenyl)-4-oxo-1H-quinoline-3-carboxamide], the EC50 is 10 to 25 µM and the “% Activity” value is given as “++ (between 25% to 100%)”.

Take `CC(C)(C)c1cc(C(C)(C)C)c(NC(=O)c2c[nH]c3c(F)cccc3c2=O)cc1O` [Compound 687, 8-fluoro-N-(5-hydroxy-2,4-ditert-butyl-phenyl)-4-oxo-1H-quinoline-3-carboxamide]: the EC50 was below 10 µM and the “% Activity” value was “++ (between 25% to 100%)”.

For `CN(c1ccc(F)cc1)S(=O)(=O)c1ccc2[nH]cc(C(=O)Nc3cc(O)c(C(C)(C)C)cc3C(C)(C)C)c(=O)c2c1` [Compound 137, 6-[(4-fluorophenyl)-methyl-sulfamoyl]-N-(5-hydroxy-2,4-ditert-butyl-phenyl)-4-oxo-1H-quinoline-3-carboxamide], the EC50 was below 10 µM and the “% Activity” value was “++ (between 25% to 100%)”.

Take `CCc1ccc(NC(=O)c2c[nH]c3ccccc3c2=O)cc1NC(=O)OC` [Compound 129, [2-ethyl-5-[(4-oxo-1H-quinolin-3-yl)carbonylamino]phenyl]aminoformic acid methyl ester]: the EC50 was 10 to 25 µM and the “% Activity” value is recorded as “++ (between 25% to 100%)”.

Take `CCc1ccc(NC(=O)OC)cc1NC(=O)c1c[nH]c2ccccc2c1=O` [Compound 249, [4-ethyl-3-[(4-oxo-1H-quinolin-3-yl)carbonylamino]phenyl]aminoformic acid methyl ester]: the EC50 was in the range of 10 to 25 µM and the “% Activity” value is listed as “++ (between 25% to 100%)”.

Consider `CC1(c2cc(F)c(NC(=O)c3cnc4ccccc4c3O)cc2O)CCCCCCC1` [Compound 403, N-[2-fluoro-5-hydroxy-4-(1-methylcyclooctyl)-phenyl]-4-hydroxy-quinoline-3-carboxamide], for which the EC50 is below 10 µM and the “% Activity” value is given as “++ (between 25% to 100%)”.

Regarding `CCOc1ccccc1-c1ccc(NC(=O)OC(C)(C)C)cc1NC(=O)c1c[nH]c2ccccc2c1=O` [Compound 114, [4-(2-ethoxyphenyl)-3-[(4-oxo-1H-quinolin-3-yl)carbonylamino]phenyl]aminoformic acid tert-butyl ester], the EC50 was below 10 µM and the “% Activity” value was “++ (between 25% to 100%)”.

In the case of `COC(=O)[C@@H]1[C@H]2C[C@H]2CN1c1ccc(NC(=O)c2c[nH]c3ccccc3c2=O)c(C(F)(F)F)c1` [Compound 531, (1S,2S,5R)-methyl 3-(4-(4-oxo-1,4-dihydroquinoline-3-carboxamido)-3-(trifluoromethyl)phenyl)-3-azabicyclo[3.1.0]hexane-2-carboxylate], the EC50 was below 10 µM and the “% Activity” value is “++ (between 25% to 100%)”.

Take `CCOCCOc1cc(NC(=O)c2c[nH]c3ccccc3c2=O)ccc1C(C)(C)C` [Compound 161, N-[3-(2-ethoxyethoxy)-4-tert-butyl-phenyl]-4-oxo-1H-quinoline-3-carboxamide]: the EC50 is below 10 µM and the “% Activity” value is “++ (between 25% to 100%)”.

Regarding `O=C(Nc1ccccc1-c1ccccc1Oc1ccccc1)c1c[nH]c2ccccc2c1=O` [Compound 247, 4-oxo-N-[2-(2-phenoxyphenyl)phenyl]-1H-quinoline-3-carboxamide], the EC50 is below 10 µM and the “% Activity” value was “++ (between 25% to 100%)”.

As to `O=C(Nc1ccc(Cl)cc1)c1c[nH]c2ccccc2c1=O` [Compound 405, N-(4-chlorophenyl)-4-oxo-1H-quinoline-3-carboxamide], the EC50 was below 10 µM and the “% Activity” value was “++ (between 25% to 100%)”.

`Cc1ccc2c(=O)c(C(=O)Nc3cc(O)c(C(C)(C)C)cc3C(C)(C)C)c[nH]c2c1` [Compound 640, N-(5-hydroxy-2,4-ditert-butyl-phenyl)-7-methyl-4-oxo-1H-quinoline-3-carboxamide]: the EC50 is below 10 µM and the “% Activity” value is on record as “+++ (>100%)”.

Turning to `Cc1ccc(C(N)=O)c(NC(=O)c2c[nH]c3ccccc3c2=O)c1` [Compound 335, N-(2-carbamoyl-5-methyl-phenyl)-4-oxo-1H-quinoline-3-carboxamide], the EC50 was 25 to 60 µM and the “% Activity” value is reported as “+ (<25%)”.

With `CC(C)(C)c1c[nH]c2cc(NC(=O)c3c[nH]c4ccccc4c3=O)ccc12` [Compound 478, 4-oxo-N-(3-tert-butyl-1H-indol-6-yl)-1H-quinoline-3-carboxamide], the EC50 was below 10 µM and the “% Activity” value is “++ (between 25% to 100%)”.

Regarding `COc1cccc(OC)c1-c1ccccc1NC(=O)c1c[nH]c2ccccc2c1=O` [Compound 49, N-[2-(2,6-dimethoxyphenyl)phenyl]-4-oxo-1H-quinoline-3-carboxamide], the EC50 is below 10 µM and the “% Activity” value was “++ (between 25% to 100%)”.

For the compound `COC(=O)Oc1c(NC(=O)c2c[nH]c3ccccc3c2=O)cc(F)cc1C(C)(C)C` [Compound 288, N-(5-fluoro-2-methoxycarbonyloxy-3-tert-butyl-phenyl)-4-oxo-1H-quinoline-3-carboxamide], the EC50 was below 10 µM and the “% Activity” value is on record as “++ (between 25% to 100%)”.

As for `O=C(Nc1ccncc1)c1c[nH]c2ccccc2c1=O` [Compound 53, 4-oxo-N-(4-pyridyl)-1H-quinoline-3-carboxamide], the 50% effective concentration (EC50) lay in the range of 25 to 60 µM and the “% Activity” value is listed as “+ (<25%)”.

In the case of `Cc1ccc(-c2ccccc2)cc1NC(=O)c1c[nH]c2ccccc2c1=O` [Compound 454, N-(2-methyl-5-phenyl-phenyl)-4-oxo-1H-quinoline-3-carboxamide], the EC50 fell in the range of 25 to 60 µM and the “% Activity” value was “+ (<25%)”.

For the compound `O=C(Nc1ccc(Cl)cn1)c1c[nH]c2ccccc2c1=O` [Compound 170, N-(5-chloro-2-pyridyl)-4-oxo-1H-quinoline-3-carboxamide], the EC50 was in the range of 25 to 60 µM and the “% Activity” value is “+ (<25%)”.

`CC(C)(C)c1ccc(N)cc1NC(=O)c1c[nH]c2ccccc2c1=O` [Compound 260, N-(5-Amino-2-tert-butyl-phenyl)-4-oxo-1H-quinoline-3-carboxamide]: the EC50 was below 10 µM and the “% Activity” value is “++ (between 25% to 100%)”.

Consider `O=C(Nc1ccccc1-c1cc(F)cc(F)c1)c1c[nH]c2ccccc2c1=O` [Compound 138, N-[2-(3,5-difluorophenyl)phenyl]-4-oxo-1H-quinoline-3-carboxamide], for which the “% Activity” value is listed as “++ (between 25% to 100%)”.

`Cc1ccc(C#N)c(NC(=O)c2c[nH]c3ccccc3c2=O)c1` [Compound 89, N-(2-cyano-5-methyl-phenyl)-4-oxo-1H-quinoline-3-carboxamide]: the EC50 was 25 to 60 µM and the “% Activity” value is recorded as “+ (<25%)”.

For the compound `CC(C)c1cccc(-c2ccccc2NC(=O)c2c[nH]c3ccccc3c2=O)c1` [Compound 290, N-[2-(3-isopropylphenyl)phenyl]-4-oxo-1H-quinoline-3-carboxamide], the EC50 was below 10 µM and the “% Activity” value is “++ (between 25% to 100%)”.

Regarding `CC(C)(C)OC(=O)[C@@H]1CCCN1c1ccc(NC(=O)c2c[nH]c3ccccc3c2=O)c(C(F)(F)F)c1` [Compound 629, (S)-tert-butyl 1-(4-(4-oxo-1,4-dihydroquinoline-3-carboxamido)-3-(trifluoromethyl)phenyl)pyrrolidine-2-carboxylate], the EC50 is below 10 µM and the “% Activity” value is recorded as “++ (between 25% to 100%)”.

Take `Cc1ccccc1-c1nc2cc(NC(=O)c3c[nH]c4ccccc4c3=O)ccc2o1` [Compound 329, N-[2-(o-tolyl)benzooxazol-5-yl]-4-oxo-1H-quinoline-3-carboxamide]: the EC50 lay in the range of 10 to 25 µM and the “% Activity” value is recorded as “++ (between 25% to 100%)”.
